Assay results from ChEMBL document CHEMBL1770076, “(+)-Arisugacin A--computational evidence of a dual binding site covalent inhibitor of acetylcholinesterase” (Bioorg Med Chem Lett, 2011).

What was measured:
Cholinesterase = Cholinesterase (Homo sapiens, UniProt P06276)
Acetylcholinesterase = Acetylcholinesterase (Homo sapiens, UniProt P22303)
Acetylcholinesterase, sequence (P22303 whole entry): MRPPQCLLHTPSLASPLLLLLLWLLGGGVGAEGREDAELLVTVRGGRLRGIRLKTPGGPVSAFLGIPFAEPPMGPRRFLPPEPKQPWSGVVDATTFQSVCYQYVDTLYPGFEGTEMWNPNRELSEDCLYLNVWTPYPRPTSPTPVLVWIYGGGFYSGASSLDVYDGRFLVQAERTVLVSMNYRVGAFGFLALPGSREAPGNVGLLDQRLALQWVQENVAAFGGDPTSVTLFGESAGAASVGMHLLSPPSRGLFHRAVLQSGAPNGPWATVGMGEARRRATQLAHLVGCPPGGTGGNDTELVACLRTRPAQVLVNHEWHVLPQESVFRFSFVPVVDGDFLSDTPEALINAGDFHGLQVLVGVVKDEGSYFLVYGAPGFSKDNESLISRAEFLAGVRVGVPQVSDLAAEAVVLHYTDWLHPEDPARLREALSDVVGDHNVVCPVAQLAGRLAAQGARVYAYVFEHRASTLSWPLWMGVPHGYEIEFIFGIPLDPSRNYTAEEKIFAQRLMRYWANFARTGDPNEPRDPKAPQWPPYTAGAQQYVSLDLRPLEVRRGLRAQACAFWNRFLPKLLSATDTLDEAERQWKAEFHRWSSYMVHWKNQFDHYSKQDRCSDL
Description: Inhibition of AChE-induced amyloid beta aggregation

Cholinesterase, sequence (P06276 whole entry): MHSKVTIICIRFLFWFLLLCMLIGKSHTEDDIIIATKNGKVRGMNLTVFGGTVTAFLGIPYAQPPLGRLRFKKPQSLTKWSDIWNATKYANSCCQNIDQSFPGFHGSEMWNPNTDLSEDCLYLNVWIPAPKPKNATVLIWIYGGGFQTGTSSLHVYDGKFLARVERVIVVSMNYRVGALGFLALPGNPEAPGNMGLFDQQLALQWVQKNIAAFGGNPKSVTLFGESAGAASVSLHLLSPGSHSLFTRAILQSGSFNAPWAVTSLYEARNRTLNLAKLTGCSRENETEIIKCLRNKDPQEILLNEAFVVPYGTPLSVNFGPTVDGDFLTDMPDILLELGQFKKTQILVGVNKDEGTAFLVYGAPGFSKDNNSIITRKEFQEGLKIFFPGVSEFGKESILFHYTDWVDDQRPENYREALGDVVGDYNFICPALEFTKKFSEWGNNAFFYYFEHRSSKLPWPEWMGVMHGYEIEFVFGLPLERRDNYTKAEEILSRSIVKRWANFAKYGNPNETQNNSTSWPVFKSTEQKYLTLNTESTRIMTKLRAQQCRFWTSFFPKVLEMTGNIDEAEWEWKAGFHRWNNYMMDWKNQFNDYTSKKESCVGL

SMILES: COc1ccc(-c2cc3c(c(=O)o2)C[C@]2(O)[C@@]4(C)C(=O)C=CC(C)(C)[C@]4(O)CC[C@@]2(C)O3)cc1OC
- IC50 (Cholinesterase): 18 µM

SMILES: C/C=C1\[C@H]2C=C(C)C[C@]1(N)c1ccc(=O)[nH]c1C2 [HUPERZINE A]
- IC50 (Cholinesterase): 0.1 µM

SMILES: COc1cc(-c2cc3c(c(=O)o2)C[C@]2(O)[C@@]4(C)C(=O)C=CC(C)(C)[C@]4(O)CC[C@@]2(C)O3)cc(OC)c1OC [TERRITREM B]
- IC50 (Acetylcholinesterase): 0.006 µM
